Data published in ChEMBL document CHEMBL6177948, “Discovery of potential Leonurine-based therapeutic lead MJ210 attenuates Parkinson's disease pathogenesis via NF-κB and MAPK pathways: Mechanistic insights from in vitro and in vivo rotenone models” (Eur J Med Chem, 2025).
Calls of active or inactive are those of the source. The calls are words filed in the database; no cut-off is given here.

Columns and labels:
[1] = test system: SH-SY5Y; assay: (§1) Neuroprotective activity against rotenone-induced mitochondrial ROS generation in human SH-SY5Y cells assessed as decrease in ROS level at 5 uM preincubated with compound for 24 hrs followed by rotenone addition and measured after 24 hrs by Mito Tracker staining based fluorescence microscopic analysis; format: functional, cell-based; settings: time 48.0 hrs
[2] = test system: SH-SY5Y; assay: Neuroprotective activity against rotenone-induced cytotoxicity in human SH-SY5Y cells assessed as increase in cell viability at 1 to 20 uM incubated for 24 hrs by MTT assay relative to control; format: functional; settings: dose 1-20 µM
[3] = test system: SH-SY5Y; assay: Neuroprotective activity against rotenone-induced ROS formation in human SH-SY5Y cells assessed as decrease in ROS level at 5 uM preincubated with compound for 24 hrs followed by rotenone addition by H2DCFDA staining based fluorescence microscopic analysis; format: functional, cell-based
[4] = test system: SH-SY5Y; assay: Anti-apoptotic activity in rotenone-induced human SH-SY5Y cells assessed as reduction in Caspase-3 expression by Western blotting analysis; format: functional, cell-based
[5] = test system: SH-SY5Y; assay: as §1, with “morphological changes” for “ROS generation”, “intact tubular” for “decrease in ROS level”; format: functional, cell-based; settings: time 48.0 hrs
[6] = test system: SH-SY5Y; assay: as §1, with “morphological changes” for “ROS generation”, “filamentous mitochondrial shape” for “decrease in ROS level”; format: functional, cell-based; settings: time 48.0 hrs
[7] = test system: SH-SY5Y; assay: Anti-inflammatory activity against rotenone-induced human SH-SY5Y cells assessed as reduction in iNOS mRNA expression level by RT-qPCR analysis; format: functional, cell-based
[8] = test system: SH-SY5Y; assay: Inhibition of MAPK signaling pathway in rotenone-induced human SH-SY5Y cells assessed as reduction in P-38 phosphorylation level by ELISA; format: cell-based
[9] = test system: Rattus norvegicus; assay: Anti-parkinson activity in rotenone-induced male Wistar rat model assessed as increase in TH expression in substantia nigra at 5 to 10 mg/kg, ip pretreated with compound every alternative days followed by rotenone addition and measured after 42 days by Western blotting analysis; format: functional, organism-based; settings: dose 5-10 mg/kg, time 42.0 day
[10] = test system: Rattus norvegicus; assay: Anti-parkinson activity in rotenone-induced male Wistar rat model assessed as increase in TH expression in substantia nigra at 1 mg/kg, ip pretreated with compound every alternative days followed by rotenone addition and measured after 42 days by Western blotting analysis; format: functional, organism-based; settings: time 42.0 day
[11] = test system: Rattus norvegicus; assay: Anti-parkinson activity in rotenone-induced male Wistar rat model assessed as prevention of rotenone-induced dopaminergic neuronal death at 5 mg/kg, ip by immunoblotting analysis; format: functional, organism-based
[12] = test system: Rattus norvegicus; assay: Anti-parkinson activity in rotenone-induced male Wistar rat model assessed as increase DAT expression in substantia nigra at 5 mg/kg, ip pretreated with compound every alternative days followed by rotenone addition and measured after 42 days by Western blotting analysis; format: functional, organism-based; settings: time 42.0 day
[13] = test system: Rattus norvegicus; assay: Anti-parkinson activity in rotenone-induced male Wistar rat model assessed as increase in cage lid hold time at 5 mg/kg, ip pretreated with compound every alternative days followed by rotenone addition and measured after 42 days by inverted grid test; format: functional, organism-based; settings: time 42.0 day
[14] = test system: Rattus norvegicus; assay: Anti-parkinson activity in rotenone-induced male Wistar rat model assessed as reduction in rotenone-induced behavioral impairment by measuring time in central zone at 5 mg/kg, ip pretreated with compound every alternative days followed by rotenone addition and measured after 42 days by open field test; format: functional, organism-based; settings: time 42.0 day
[15] = test system: Rattus norvegicus; assay: Improvement in rotenone-induced depression-like behavior in male Wistar rat model assessed as improvement in sucrose intake at 5 mg/kg, ip pretreated with compound every alternative days followed by rotenone addition and measured after 42 days by sucrose preference test; format: functional, organism-based; settings: time 42.0 day
[16] = test system: Rattus norvegicus; assay: Anti-parkinson activity in rotenone-induced neurodegeneration in male Wistar rat model assessed as minimal neuronal loss in striatum at 5 mg/kg, ip pretreated with compound every alternative days followed by rotenone addition and measured after 42 days by H and E staining based analysis; format: functional, organism-based; settings: time 42.0 day
[17] = test system: Rattus norvegicus; assay: Anti-parkinson activity in rotenone-induced neurodegeneration in male Wistar rat model assessed as minimal neuronal loss in substantia nigra at 5 mg/kg, ip pretreated with compound every alternative days followed by rotenone addition and measured after 42 days by H and E staining based analysis; format: functional, organism-based; settings: time 42.0 day
[18] = test system: Rattus norvegicus; assay: Anti-parkinson activity in rotenone-induced neurodegeneration in male Wistar rat model assessed as reduced edema in striatum at 5 mg/kg, ip pretreated with compound every alternative days followed by rotenone addition and measured after 42 days by H and E staining based analysis; format: functional, organism-based; settings: time 42.0 day
[19] = test system: Rattus norvegicus; assay: (§2) Anti-parkinson activity in rotenone-induced neurodegeneration in male Wistar rat model assessed as decrease count of pyknotic cells in striatum at 5 mg/kg, ip pretreated with compound every alternative days followed by rotenone addition and measured after 42 days by H and E staining based analysis; format: functional, organism-based; settings: time 42.0 day
[20] = test system: Rattus norvegicus; assay: as §2, with “substantia nigra” for “striatum”; format: functional, organism-based; settings: time 42.0 day
[21] = test system: Rattus norvegicus; assay: Anti-parkinson activity in rotenone-induced neurodegeneration in male Wistar rat model assessed as decrease neuronal damage in striatum at 5 mg/kg, ip pretreated with compound every alternative days followed by rotenone addition and measured after 42 days by Nissl staining based analysis; format: functional, organism-based; settings: time 42.0 day
[22] = test system: Rattus norvegicus; assay: Anti-parkinson activity in rotenone-induced neurodegeneration in male Wistar rat model assessed as reduction in pyknotic neurons in cortex at 5 mg/kg, ip pretreated with compound every alternative days followed by rotenone addition and measured after 42 days by Nissl staining based analysis; format: functional, organism-based; settings: time 42.0 day
[23] = test system: Rattus norvegicus; assay: Anti-parkinson activity in rotenone-induced neurodegeneration in male Wistar rat model assessed as reduction in necrosis in cortex at 5 mg/kg, ip pretreated with compound every alternative days followed by rotenone addition and measured after 42 days by Nissl staining based analysis; format: functional, organism-based; settings: time 42.0 day
[24] = test system: Rattus norvegicus; assay: (§3) In vivo inhibition of MAPK signaling pathway in rotenone-induced parkinson disease male Wistar rat model assessed as reduction in ERK1/2 phosphorylation level in substantia nigra at 5 mg/kg, ip pretreated with compound every alternative days followed by rotenone addition and measured after 42 days by Western blotting analysis; format: functional, organism-based; settings: time 42.0 day
[25] = test system: Rattus norvegicus; assay: as §3, with “P-38” for “ERK1/2”; format: functional, organism-based; settings: time 42.0 day
[26] = test system: Rattus norvegicus; assay: as §3, with “P-38” for “ERK1/2”, “striatum” for “substantia nigra”; format: functional, organism-based; settings: time 42.0 day
[27] = test system: Rattus norvegicus; assay: as §3, with “JNK” for “ERK1/2”, “striatum” for “substantia nigra”; format: functional, organism-based; settings: time 42.0 day
[28] = test system: Rattus norvegicus; assay: Anti-inflammatory activity in rotenone-induced male Wistar rat model assessed as reduction in IL-1beta expression level in substantia nigra at 5 mg/kg, ip pretreated with compound every alternative days followed by rotenone addition and measured after 42 days by ELISA; format: functional, organism-based; settings: time 42.0 day
[29] = test system: Rattus norvegicus; assay: Anti-inflammatory activity in rotenone-induced male Wistar rat model assessed as reduction in PGE2 expression level in striatum at 5 mg/kg, ip pretreated with compound every alternative days followed by rotenone addition and measured after 42 days by ELISA; format: functional, organism-based; settings: time 42.0 day
[30] = Toxicity in male Wistar rat assessed as change in cellular structure of spleen at 1 to 10 mg/kg by H and E staining based analysis; format: organism-based; settings: in vivo, dose 1-10 mg/kg
[31] = test system: Rattus norvegicus; assay: Anti-inflammatory activity in rotenone-induced male Wistar rat model assessed as reduction in phosphorylated NF-kappaB P65 protein expression level in substantia nigra at 5 mg/kg, ip pretreated with compound every alternative days followed by rotenone addition and measured after 42 days by ELISA; format: functional, organism-based; settings: time 42.0 day
[32] = test system: SH-SY5Y; assay: Neuroprotective activity against rotenone-induced cytotoxicity in human SH-SY5Y cells assessed as increase in number of live cells by measuring mean fluorescence intensity; format: functional, cell-based

For `COc1cc(CCC(=O)N2CCCCC2)cc(OC)c1OC(=O)c1ccccn1`, the Activity [1] was “Active”, the Activity [2] was 81.9% and the Activity [3] was “Active”. The Activity [4] was “Active”, the Activity [5] was “Active” and the Activity [6] was “Active”. For the same molecule, the Activity [7] was “Active”, the inhibition [8] was “Active” and the Activity [9] was “Active”. The Activity [10] was “Active”, the Activity [11] was “Active” and the Activity [12] was “Active”. The Activity [13] was “Active”, the Activity [14] was “Active” and the Activity [15] was “Active”. The Activity [16] was “Active”, the Activity [17] was “Active” and the Activity [18] was “Active”. For the same molecule, the Activity [19] was “Active”, the Activity [20] was “Active” and the Activity [21] was “Active”. The Activity [22] was “Active”, the Activity [23] was “Active” and the inhibition [24] was “Active”. The inhibition [25] was “Active”, the inhibition [26] was “Active” and the inhibition [27] was “Active”. For the same molecule, the Activity [28] was “Active”, the Activity [29] was “Active” and the Activity [30] was “Non-toxic”. For the same molecule, the Activity [31] was “Active” and the Activity [32] was “Active”.
